Several values for one entry are separate records, joined by “and”; a condition that tells them apart may be missing. Equal values may be shown once. Read-outs that look alike come from different tables or passages of the source.
Legend:
[1] = body weight of unilateral LIM chicks after 7-day LIM; format: in vivo, White Leghorn chicks (Gallus gallus); details: after 7-day LIM (PN17), 74 μM intravitreal x4 days
Excerpt: The present disclosure provides a method for reducing myopia progression by administering a therapeutically effective amount of celastrol via intravitreal injection to a vitreous or via a non-invasive route, such as topically to the eye, e.g., as an eye drop containing a therapeutically effective amount of celastrol administered to a cornea or conjunctiva of a subject's eye. […] Change of body weight before and after 7-day LIM and choroidal thickness of a uvea of the celastrol group after 2-hr removal of the lens from the unilateral LIM chicks following the 7-day LIM were also quantified to show no adverse side effect but an increase in choroidal thickness induced by a low-dose celastrol. […] For instance, if celastrol is administered via the intravitreal injection, based on the difference in vitreous volume between the animal model tested and the human being, the human equivalent dose of celastrol could be determined. Taking chicken's vitreous volume as an illustrative example, if the celastrol is administered at about 74 μM via intravitreal injection to the chicken's vitreous, assuming that the vitreous volume of a chicken in general is about 200 μl, based on an estimated human vitreous volume (about 4.5 ml), the human equivalent dose of celastrol via intravitreal injection is determined to be about 1.665 mM. […]

[2] = tested on: lens-induced myopia (LIM) chicks; test: unilateral lens-induced myopia (LIM) chick model, intravitreal injection; format: in vivo, White Leghorn chicks (Gallus gallus)
Procedure: To create a lens-induced myopia (LIM) animal model, concave lenses of −5 D were applied to the White Leghorn chicks (Gallus gallus), hatched from specific pathogen-free eggs (SPF, Jinan, China), until they were ten days old (PN10, baseline). All the animals were raised in standard cages at 25° C. with sufficient food and water daily under the 12 h:12 h light/dark cycle. The central ambient luminance over the cages was maintained at around 260 lux.
Turning to FIG. 1, starting from ten days old (PN10), the LIM chicks received four intravitreal injections in four consecutive days, i.e., PN10, PN11, PN12 and PN13 (s101). LIM chicks were randomly assigned to two groups, including LIM chicks (n=6) with vehicle injection (1% DMSO with 1% β-CDs) (101b) and LIM chicks (n=7) with celastrol injection (74 μM celastrol dissolved in 1% DMSO with 1% β-CDs) (101a), and no gender preference was selected in the experimental groupings. β-CDs were selected as a drug carrier of celastrol because of its doughnut-shaped cavities with hydrophilic outer and hydrophobic inner surfaces to form a complex with the celastrol to enhance the solubility, stability and permeation of celastrol in vivo. The freshly prepared solution (10 μl) was injected monocularly with a 0.3-mL syringe (31-gauge needle, BD Medical, Le Pont deClaix, France) into the vitreous through the sclera, choroid, and retina close to the margin of the upper orbit. Immediately following the first injection on PN10, the LIM chicks' right (or left) eyes were assigned to −5 D lenses (treated eyes 102a), and no lens was attached to the fellow eyes (control eyes 102b) (s102). The treated eyes 102a covered with lens in each LIM chick (unilateral LIM) received the subsequent celastrol injection 101a or vehicle 101b on PN11, PN12 and PN13, whereas there was no treatment for the contralateral (control) eye 102b.
After 7-day LIM (PN17), the lenses were removed for 2 hours (s103). The refractive error and ocular parameters were recorded separately at baseline (PN10), 7-day LIM (PN17), and after 2-hour recovery (PN17+2 hr) using the steak retinoscopy and high-frequency ultrasonography (s104). Refractive errors were detected using a streak retinoscope, and ocular parameters were measured using a high-frequency A-scan ultrasound system with a 30 MHz transducer (Panametrics, Inc., Waltham, MA), respectively, before and after treatments. The spherical equivalent (S.E.) was calculated from the refractive status (S.E.=spherical power+½ cylindrical power). Axial length (AL) was defined from the front of the cornea to the back of the vitreous chamber.
Biometric data obtained from unilateral LIM chicks treated with or without celastrol according to the scheme depicted in Example 1 and FIG. 1 were analyzed. First of all, after the 7-day lens treatment period (PN1, the interocular differences (differences between the lens-treated eyes and the contralateral fellow eyes) were calculated for the three ocular parameters (refractive error, vitreous chamber depth, and axial length), and the results are shown in FIGS. 2A-2C, respectively. Because choroid thickness change is believed to be an indicator of progression to myopia, the choroidal thickness was also measured after a 2-hour recovery, and the results are shown in FIG. 2D. The mean interocular differences and choroidal thickness changes are presented with ±SD. The significance between celastrol and vehicle groups was analyzed using an unpaired t-test with equal variance.

[3] = tested on: retinal ganglion cells (RGCs); details: cited from earlier work
[4] = tested on: neuroendocrine chromaffin cells; details: 1 μM celastrol; cited from earlier work

With `CC1=C(O)C(=O)C=C2C1=CC=C1[C@@]2(C)CC[C@@]2(C)[C@@H]3C[C@](C)(C(=O)O)CC[C@]3(C)CC[C@]12C` [celastrol] as the compound, how does the “body weight compared with vehicle group” value [1] read?
The value was “no retardation of growth regarding body weight”.

And the “interocular difference in refractive error (spherical equivalent), mean±SD” value ([2]; 74 μM celastrol, 10 μl intravitreal q.d. PN10-PN13, after 7-day LIM (PN17), lens-treated minus fellow eye, n=7)?
Its value is −1.68±2.03 D.

What about the “choroidal thickness change, mean±SD” value ([2]; 74 μM intravitreal x4 days, after 2-hour recovery from 7-day LIM (PN17+2 hr), P=0.072 vs vehicle) of the same compound?
The value was 65.98±20.89 μm.

What about the “interocular difference in axial length (AL), mean±SD” value ([2]; 74 μM intravitreal x4 days, after 7-day LIM (PN17), A-scan, P=0.054 vs vehicle) of the same compound?
Its value is 0.088±0.109 mm.

What about the “interocular difference in vitreous chamber depth (VCD), mean±SD” value ([2]; 74 μM intravitreal x4 days, after 7-day LIM (PN17), A-scan, n=7) of the same compound?
Its value is 0.190±0.105 mm.

What about the inhibition at 74 µM ([2]; Gallus gallus, 168 h, celastrol group vs vehicle group, 74 μM intravitreal, 7-day LIM, read-out: inhibition of myopia based on refractive error data) of the same compound?
Its inhibition at 74 µM is roughly 46.3%.

And the “averaged shift of relative myopia in interocular difference, vehicle group versus celastrol group (mean)” value ([2]; after 7-day LIM (PN17))?
The value was −1.45 D.

What about the “enlargement of VCD in vehicle group compared with celastrol group” value ([2]; after 7-day LIM (PN17), P>0.05) of the same compound?
The value was 0.070 mm.

What about the “numerical elongation of AL in vehicle group compared with celastrol group (mean)” value ([2]; after 7-day LIM (PN17), P>0.05) of the same compound?
Its value is 0.174 mm.

What about the “inhibition of myopia based on axial length data” value ([2]; celastrol group vs vehicle group, 74 μM intravitreal, 7-day LIM) of the same compound?
Its value is ~66.4% and ~46.2%.

And the myopia progression ([2]; intravitreal injection at the dose tested (74 μM))?
The myopia progression was “could suppress myopia progression”.

What about the “increase in average number of retinal ganglion cells (RGCs) compared to controls” value ([3]; injection of 1 mg/kg celastrol) of the same compound?
The value was “approximately 80%”.

And the “increase in average number of retinal ganglion cells (RGCs) compared to controls” value ([3]; injection of 5 mg/kg celastrol)?
Its value is roughly 78%.

What about the increase in dopamine [4] of the same compound?
The increase in dopamine was 6 fold.
